# Columns and labels:
# [1] = tested on: E. coli (NCTC 10418); assay: Antimicrobial susceptibility testing (MIC) by the oCelloScope system; format: cell-based, Escherichia coli; conditions: CAMHBT broth, SESA growth curves
# Protocol: E. coli (strain NCTC 10418) and S. aureus (Wood 46, NCTC 7121) were grown overnight in Sensititre® cation-adjusted Mueller-Hinton broth with TES (CAMHBT, TREK Diagnostic System). Bacterial cell suspensions were adjusted to 0.5 McFarland standard using a nephelometer. Subsequently, bacteria were diluted in CAMHBT according to the recommended final inoculum size for broth dilution (5×10^5 colony-forming units (CFU) ml^−1) (Wiegand, I., K. Hilpert, and R. E. Hancock, Agar and broth dilution methods to determine the minimal inhibitory concentration (MIC) of antimicrobial substances. Nat Protoc, 2008. 3(2): p. 163-75) and analyzed in Nunc Edge 96-well plates by the oCelloScope system.
# The oCelloScope is a digital time-lapse microscopy technology that scans through a fluid sample generating series of images as described in 2013 by Fredborg et al. (Fredborg, M., et al., Real-time optical antimicrobial susceptibility testing. J Clin Microbiol, 2013. 51(7): p. 2047-53). As a result of the tilted imaging plane, the images recorded by the oCelloScope system constitute a parallelepipedum that forms the image stack. […] Growth kinetics was determined by image stack processing based on contrast based Segmentation and Extraction of Surface Area (SESA). […]
# The effect of GA on bacterial growth was further evaluated using, an optical screening system (oCelloScope) (FIG. 6). […]
# [2] = tested on: multi-resistant P. aeruginosa strain (CCUG59626); assay: Flow cytometry viability assay on multiresistant strain; format: cell-based, Pseudomonas aeruginosa; conditions: CCUG59626, ~10^8 cells/ml
# Protocol: A multi-resistant P. aeruginosa strain (CCUG59626) (˜10^8 cells/ml) was incubated with varying concentrations of GA and LL-37. […] All experiments were performed as four replicates.
# [3] = tested on: P. aeruginosa (Strain PAO1); assay: Antimicrobial susceptibility testing by flow cytometry-based assay (LIVE/DEAD BacLight, Syto9/PI); format: cell-based
# Protocol: E. coli (strain NCTC 10418), P. aeruginosa (Strain PAO1) and S. aureus (Wood 46, NCTC 7121) cells were grown in 5 mL of Todd Hewitt Broth medium (THB; Sigma-Aldrich). Bacteria were cultivated at 37° C. for 15 h in a 15 mL tube to obtain late-log phase cultures. Bacterial cultures were pelleted at 3096 g for 10 minutes; the supernatant was discarded and bacteria were resuspended in phosphate-buffered saline (PBS) supplemented with 40 mg/ml human albumin to mimic chemical properties of blood. Bacteria were diluted to a standardized inoculum of 10^9 CFU/mL.
# Bacteria were treated with GA, LL-37, Piperacillin/Tazobactam or Vancomycin in varying concentrations, i.e. 50, 25, 10 or 2 μg/ml, for 30 minutes. As a positive control, bacteria were treated with 7% isopropanol. Hereafter, bacteria were pelleted at 3096 g for 10 minutes; the supernatant was discarded and bacteria were resuspended in PBS. The antimicrobial effect was tested in a well-established and widely used flow cytometry-based assay (LIVE/DEAD® BacLight™ Bacterial Viability and Counting Kit (L34856), Molecular Probes/Invitrogen) according to manufacturer's manual.
# For each bacteria, the flow cytometry-based assay was repeated four times.
# The antibacterial effect of GA on the gram-negative strain P. aeruginosa was tested by carrying out an experiment as described in Example 1. […] Although the untreated control stained positive for PI, this seemed to be explained by the capability of intact P. aeruginosa to secrete large quantities of DNA to the extracellular milieu.
# [4] = tested on: P. aeruginosa (PAO1); assay: Binding of Alexa Fluor 488-labeled GA to bacteria (MFI by flow cytometry); design: species or system Pseudomonas aeruginosa; conditions: PBS + 50 mM NaCl, total salt 200 mM, GA 50 and 10 μg/ml
# Protocol: GA was diluted in freshly made 0.1 M NaHCO3 and labeled with Alexa Fluor 488 according to manufacturer's instruction. Late-log phase E. coli (strain NCTC 10418), P. aeruginosa (strain PAO1, ATCC 15692) and S. aureus (Wood 46, NCTC 7121) were resuspended in PBS or PBS supplemented with 50 mM NaCl; treated with either 50 μg/ml or 10 μg/ml Alexa Fluor® 488-labeled GA and incubated on a shaker at 37° C. for 30 minutes. Hereafter, bacteria were diluted 1:100 in PBS and analyzed on a Novocyte™ flow cytometer.
# This constitutes a problem when for example treating patients with cystic fibrosis. These patients have a high salt concentration in their lungs of about 150-200 mM, and it is therefore critical that drugs used for treating these patients are active at such high salt concentrations (Gilljam H et al., Scand J Clin Lab Invest. 1989 April; 49(2):121-4). Therefore, the binding capacity of GA to bacteria resuspended in PBS or in PBS supplemented with 50 mM NaCl. PBS+50 mM NaCl results in a total salt concentration of 200 mM. […]
# Mean Fluorescence intensities (MFI) were assessed by flow cytometry to quantify the binding capacity of GA to the bacterial membrane. […]
# [5] = within the 30 minutes of treatment
substance,measurement,setting,value
Glatiramer acetate [GA],MIC,[1],31 µg/mL
same,susceptibility of multiresistant strain (in words),[2],highly susceptible
same,antimicrobial activity (in words),[3]; [5],more potent than when treating bacteria with 7% isopropanol
same,decreased bacterial inoculum,[3]; [5],~75%
same,increased PI positivity,[3]; within the 30 minutes of treatment (FIG. 4 overview),~50%
same,"binding capacity to bacteria (MFI, in words)",[4],retained its binding capacity

# Source: US10166253B2, “Positively charged co-polymers for use as antimicrobial agents” (priority 2014, dated 2019)
